Measurements reported in publication PMC5681922, “Systemic Responses of Multidrug-Resistant Pseudomonas aeruginosa and Acinetobacter baumannii Following Exposure to the Antimicrobial Peptide Cathelicidin-BF Imply Multiple Intracellular Targets” (Frontiers in Cellular and Infection Microbiology, 2017).
Read-outs that look alike come from different tables or passages of the source. No end group written: not given here.

How the values were obtained:
P. aeruginosa 1409 [1] = assay: Minimal inhibitory concentration (given as multiples of MIC); assay type: cell-based, Pseudomonas aeruginosa; details: MDR clinical isolate; MIC itself not given, only this multiple
P. aeruginosa 1409 [2] = tested on: P. aeruginosa 1409

Question: “KFFRKLKKSVKKRAKEFFKKPRVIGVSIPF [cathelicidin-BF]” was tested. Which “4 × MIC” value (P. aeruginosa 1409 [1]) did it give?
Answer: 32 µg/mL

Question: What about the Pa-Ca/Pa-C (P. aeruginosa 1409 [2]) of the same sequence?
Answer: 0.8832

Question: And the “Pa-Ca/Pa-C: 30S ribosomal protein S9, rpsI (Q9HVY3)” value (P. aeruginosa 1409 [2])?
Answer: 0.9749

Question: What about the “expression of protein Q9HVA1 (acetolactate synthase isozyme III small subunit)” value (P. aeruginosa 1409 [2]) of the same sequence?
Answer: overexpressed

Question: And the “expression of protein Q9I3S7 (likely decarboxylase)” value (P. aeruginosa 1409 [2])?
Answer: downregulated

Question: What about the “expression of protein Q9I523 (nucleoside-triphosphate diphosphatase)” value (P. aeruginosa 1409 [2]) of the same sequence?
Answer: downregulated

Question: What about the Pa-Ca/Pa-C (P. aeruginosa 1409 [2]; iTRAQ abundance ratio Pa-Cathelicidin/Pa-Control of protein G3XCU7 (GN=PA2949)) of the same sequence?
Answer: 0.9896

Question: And the Pa-Ca/Pa-C (P. aeruginosa 1409 [2]; iTRAQ abundance ratio Pa-Cathelicidin/Pa-Control of protein G3XCU9 (GN=PA2020))?
Answer: 0.9868

Question: What about the Pa-Ca/Pa-C (P. aeruginosa 1409 [2]; iTRAQ abundance ratio Pa-Cathelicidin/Pa-Control of protein G3XCW2 (GN=PA2018)) of the same sequence?
Answer: 1.1346

Question: And the Pa-Ca/Pa-C (P. aeruginosa 1409 [2]; iTRAQ abundance ratio Pa-Cathelicidin/Pa-Control of protein G3XCX7 (GN=pilP))?
Answer: 0.9395

Question: And the Pa-Ca/Pa-C (P. aeruginosa 1409 [2]; iTRAQ abundance ratio Pa-Cathelicidin/Pa-Control of protein G3XCZ4 (GN=PA0891))?
Answer: 1.209

Question: What about the Pa-Ca/Pa-C (P. aeruginosa 1409 [2]; iTRAQ abundance ratio Pa-Cathelicidin/Pa-Control of protein G3XD66 (GN=narX)) of the same sequence?
Answer: 0.9046

Question: And the Pa-Ca/Pa-C (P. aeruginosa 1409 [2]; iTRAQ abundance ratio Pa-Cathelicidin/Pa-Control of protein G3XD98 (GN=gacS))?
Answer: 1.089

Question: And the Pa-Ca/Pa-C (P. aeruginosa 1409 [2]; iTRAQ abundance ratio Pa-Cathelicidin/Pa-Control of protein G3XDA4 (GN=PA0653))?
Answer: 1.044

Question: And the Pa-Ca/Pa-C (P. aeruginosa 1409 [2]; iTRAQ abundance ratio Pa-Cathelicidin/Pa-Control of protein O50273 (GN=cysD))?
Answer: 0.9324

Question: And the Pa-Ca/Pa-C (P. aeruginosa 1409 [2]; iTRAQ abundance ratio Pa-Cathelicidin/Pa-Control of protein O68561 (GN=PA4766))?
Answer: 1.042

Question: And the Pa-Ca/Pa-C (P. aeruginosa 1409 [2]; iTRAQ abundance ratio Pa-Cathelicidin/Pa-Control of protein P23747 (GN=algB))?
Answer: 1.041

Question: And the Pa-Ca/Pa-C (P. aeruginosa 1409 [2]; iTRAQ abundance ratio Pa-Cathelicidin/Pa-Control of protein Q9HT06 (GN=yidC))?
Answer: 1.13

Question: And the Pa-Ca/Pa-C (P. aeruginosa 1409 [2]; iTRAQ abundance ratio Pa-Cathelicidin/Pa-Control of protein Q9HT09 (GN=mnmG))?
Answer: 1.075

Question: And the Pa-Ca/Pa-C (P. aeruginosa 1409 [2]; iTRAQ abundance ratio Pa-Cathelicidin/Pa-Control of protein Q9HTC2 (GN=PA5445))?
Answer: 1.07

Question: What about the Pa-Ca/Pa-C (P. aeruginosa 1409 [2]; iTRAQ abundance ratio Pa-Cathelicidin/Pa-Control of protein Q9HTG5 (GN=dgcB)) of the same sequence?
Answer: 1.053

Question: And the Pa-Ca/Pa-C (P. aeruginosa 1409 [2]; iTRAQ abundance ratio Pa-Cathelicidin/Pa-Control of protein Q9HTH5 (GN=cdhR))?
Answer: 1.224

Question: And the Pa-Ca/Pa-C (P. aeruginosa 1409 [2]; iTRAQ abundance ratio Pa-Cathelicidin/Pa-Control of protein Q9HTJ5 (GN=pstA))?
Answer: 0.8996

Question: What about the Pa-Ca/Pa-C (P. aeruginosa 1409 [2]; iTRAQ abundance ratio Pa-Cathelicidin/Pa-Control of protein Q9HTL3 (GN=recG)) of the same sequence?
Answer: 1.182

Question: And the Pa-Ca/Pa-C (P. aeruginosa 1409 [2]; iTRAQ abundance ratio Pa-Cathelicidin/Pa-Control of protein Q9HTM0 (GN=spoT))?
Answer: 1.095

Question: And the Pa-Ca/Pa-C (P. aeruginosa 1409 [2]; iTRAQ abundance ratio Pa-Cathelicidin/Pa-Control of protein Q9HTN3 (GN=dut))?
Answer: 1.23

Question: And the Pa-Ca/Pa-C (P. aeruginosa 1409 [2]; iTRAQ abundance ratio Pa-Cathelicidin/Pa-Control of protein Q9HTQ6 (GN=xpt))?
Answer: 1.069

Question: What about the Pa-Ca/Pa-C (P. aeruginosa 1409 [2]; iTRAQ abundance ratio Pa-Cathelicidin/Pa-Control of protein Q9HTY4 (GN=argE)) of the same sequence?
Answer: 1.064

Question: What about the Pa-Ca/Pa-C (P. aeruginosa 1409 [2]; iTRAQ abundance ratio Pa-Cathelicidin/Pa-Control of protein Q9HU23 (GN=rmlD)) of the same sequence?
Answer: 0.9526

Question: What about the Pa-Ca/Pa-C (P. aeruginosa 1409 [2]; iTRAQ abundance ratio Pa-Cathelicidin/Pa-Control of protein Q9HU51 (GN=PA5133)) of the same sequence?
Answer: 0.8597

Question: What about the Pa-Ca/Pa-C (P. aeruginosa 1409 [2]; iTRAQ abundance ratio Pa-Cathelicidin/Pa-Control of protein Q9HUB1 (GN=PA5072)) of the same sequence?
Answer: 1.129

Question: What about the Pa-Ca/Pa-C (P. aeruginosa 1409 [2]; iTRAQ abundance ratio Pa-Cathelicidin/Pa-Control of protein Q9HUL5 (GN=PA4949)) of the same sequence?
Answer: 0.9992

Question: What about the Pa-Ca/Pa-C (P. aeruginosa 1409 [2]; iTRAQ abundance ratio Pa-Cathelicidin/Pa-Control of protein Q9HUN4 (GN=alr)) of the same sequence?
Answer: 0.8997

Question: And the Pa-Ca/Pa-C (P. aeruginosa 1409 [2]; iTRAQ abundance ratio Pa-Cathelicidin/Pa-Control of protein Q9HUS6 (GN=PA4887))?
Answer: 0.9498

Question: And the Pa-Ca/Pa-C (P. aeruginosa 1409 [2]; iTRAQ abundance ratio Pa-Cathelicidin/Pa-Control of protein Q9HUT5 (GN=PA4878))?
Answer: 0.8866

Question: What about the Pa-Ca/Pa-C (P. aeruginosa 1409 [2]; iTRAQ abundance ratio Pa-Cathelicidin/Pa-Control of protein Q9HVA1 (GN=ilvH)) of the same sequence?
Answer: 1.442

Question: What about the Pa-Ca/Pa-C (P. aeruginosa 1409 [2]; iTRAQ abundance ratio Pa-Cathelicidin/Pa-Control of protein Q9HVI2 (GN=PA4607)) of the same sequence?
Answer: 1.1056

Question: What about the Pa-Ca/Pa-C (P. aeruginosa 1409 [2]; iTRAQ abundance ratio Pa-Cathelicidin/Pa-Control of protein Q9HVI3 (GN=PA4606)) of the same sequence?
Answer: 1.1297

Question: What about the Pa-Ca/Pa-C (P. aeruginosa 1409 [2]; iTRAQ abundance ratio Pa-Cathelicidin/Pa-Control of protein Q9HVP4 (GN=PA4533)) of the same sequence?
Answer: 1.032

Question: And the Pa-Ca/Pa-C (P. aeruginosa 1409 [2]; iTRAQ abundance ratio Pa-Cathelicidin/Pa-Control of protein Q9HVQ9 (GN=lpxO1))?
Answer: 0.3833

Question: What about the Pa-Ca/Pa-C (P. aeruginosa 1409 [2]; iTRAQ abundance ratio Pa-Cathelicidin/Pa-Control of protein Q9HVV6 (GN=PA4461)) of the same sequence?
Answer: 0.9096

Question: What about the Pa-Ca/Pa-C (P. aeruginosa 1409 [2]; iTRAQ abundance ratio Pa-Cathelicidin/Pa-Control of protein Q9HW10 (GN=PA4396)) of the same sequence?
Answer: 0.9909

Question: And the Pa-Ca/Pa-C (P. aeruginosa 1409 [2]; iTRAQ abundance ratio Pa-Cathelicidin/Pa-Control of protein Q9HW40 (GN=PA4361))?
Answer: 1.028

Question: What about the Pa-Ca/Pa-C (P. aeruginosa 1409 [2]; iTRAQ abundance ratio Pa-Cathelicidin/Pa-Control of protein Q9HW52 (GN=PA4349)) of the same sequence?
Answer: 1.052

Question: What about the Pa-Ca/Pa-C (P. aeruginosa 1409 [2]; iTRAQ abundance ratio Pa-Cathelicidin/Pa-Control of protein Q9HW85 (GN=sbcB)) of the same sequence?
Answer: 0.9833

Question: What about the Pa-Ca/Pa-C (P. aeruginosa 1409 [2]; iTRAQ abundance ratio Pa-Cathelicidin/Pa-Control of protein Q9HWG9 (GN=phzS)) of the same sequence?
Answer: 0.9442

Question: What about the Pa-Ca/Pa-C (P. aeruginosa 1409 [2]; iTRAQ abundance ratio Pa-Cathelicidin/Pa-Control of protein Q9HX06 (GN=PA4021)) of the same sequence?
Answer: 1.123

Question: And the Pa-Ca/Pa-C (P. aeruginosa 1409 [2]; iTRAQ abundance ratio Pa-Cathelicidin/Pa-Control of protein Q9HX89 (GN=PA3924))?
Answer: 0.8403

Question: And the Pa-Ca/Pa-C (P. aeruginosa 1409 [2]; iTRAQ abundance ratio Pa-Cathelicidin/Pa-Control of protein Q9HXF4 (GN=PA3852))?
Answer: 1.051

Question: And the Pa-Ca/Pa-C (P. aeruginosa 1409 [2]; iTRAQ abundance ratio Pa-Cathelicidin/Pa-Control of protein Q9HXG8 (GN=PA3836))?
Answer: 1.058

Question: What about the Pa-Ca/Pa-C (P. aeruginosa 1409 [2]; iTRAQ abundance ratio Pa-Cathelicidin/Pa-Control of protein Q9HXL6 (GN=PA3779)) of the same sequence?
Answer: 0.9473

Question: What about the Pa-Ca/Pa-C (P. aeruginosa 1409 [2]; iTRAQ abundance ratio Pa-Cathelicidin/Pa-Control of protein Q9HXT9 (GN=wspR)) of the same sequence?
Answer: 1.096

Question: What about the Pa-Ca/Pa-C (P. aeruginosa 1409 [2]; iTRAQ abundance ratio Pa-Cathelicidin/Pa-Control of protein Q9HY45 (GN=PA3575)) of the same sequence?
Answer: 1.067

Question: And the Pa-Ca/Pa-C (P. aeruginosa 1409 [2]; iTRAQ abundance ratio Pa-Cathelicidin/Pa-Control of protein Q9HY53 (GN=PA3564))?
Answer: 0.9999

Question: And the Pa-Ca/Pa-C (P. aeruginosa 1409 [2]; iTRAQ abundance ratio Pa-Cathelicidin/Pa-Control of protein Q9HYC5 (GN=PA3484))?
Answer: 1.215
